According to PubChem BioAssay AID248 (DTP/NCI, 2004):
“And” between values parts separate entries of the source, which are not always exact repeats. Identical values can stand only once. Toxic doses and inconclusive results are not listed. Rule as the data show it: active = T/C of 150% or more; inactive = T/C below 125%.

Test system: L1210 leukemia ip in BDF1 mice, survival T/C
Assay: NCI In Vivo Anticancer Drug Screen. Data for tumor model L1210 Leukemia (intraperitoneal) in B6D2F1 (BDF1) mice
Settings: endpoint: mean survival time, higher = longer survival
Summary of the method: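 Transplantable tumor model; survival measured in treated vs vehicle control mice. Value = treated/control.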

[1] = dose: 100.0 mg/kg/injection, schedule: Q01DX009 (ip), vehicle: saline with Tween-80
[2] = dose: 200.0 mg/kg/injection, schedule: Q01DX009 (ip), vehicle: saline with Tween-80
[3] = dose: 100.0 mg/kg/injection, schedule: Q01DX001 (ip), vehicle: carboxymethylcellulose (CMC)
[4] = dose: 200.0 mg/kg/injection, schedule: Q01DX001 (ip), vehicle: carboxymethylcellulose (CMC)
[5] = dose: 400.0 mg/kg/injection, schedule: Q01DX001 (ip), vehicle: carboxymethylcellulose (CMC)
[6] = dose: 50.0 mg/kg/injection, schedule: Q01DX009 (ip), vehicle: saline
[7] = dose: 100.0 mg/kg/injection, schedule: Q01DX009 (ip), vehicle: saline
[8] = dose: 200.0 mg/kg/injection, schedule: Q01DX009 (ip), vehicle: saline
[9] = dose: 50.0 mg/kg/injection, schedule: Q01DX001 (ip), vehicle: carboxymethylcellulose (CMC)

Measured: T/C

CC(=O)OCC(=O)C1(O)C(C)CC2C3C=C(C)C4=Cc5c(cnn5-c5ccccc5)CC4(C)C3C(O)CC21C (stereo not given)
inactive: dose: 8.0 mg/kg/injection, schedule: Q01DX001 (sc), vehicle: steriod suspending solution 110 % of control | dose: 16.0 mg/kg/injection, schedule: Q01DX001 (sc), vehicle: steriod suspending solution 105 % of control | dose: 32.0 mg/kg/injection, schedule: Q01DX001 (sc), vehicle: steriod suspending solution 113 % of control | dose: 45.0 mg/kg/injection, schedule: Q01DX001 (sc), vehicle: steriod suspending solution 106 % of control | dose: 70.0 mg/kg/injection, schedule: Q01DX001 (sc), vehicle: steriod suspending solution 89 % of control | dose: 105.0 mg/kg/injection, schedule: Q01DX001 (sc), vehicle: steriod suspending solution 95 % of control | dose: 160.0 mg/kg/injection, schedule: Q01DX001 (sc), vehicle: steriod suspending solution 98 % of control | dose: 240.0 mg/kg/injection, schedule: Q01DX001 (sc), vehicle: steriod suspending solution 110 % of control | dose: 360.0 mg/kg/injection, schedule: Q01DX001 (sc), vehicle: steriod suspending solution 93 % of control

O=C1OC(=O)C2CC(Cl)C(Cl)CC12 (stereo not given)
inactive: [1] 89 % of control | dose: 100.0 mg/kg/injection, schedule: Q04DX003 (ip), vehicle: saline with Tween-80 89 % of control | [2] 86 % of control | dose: 200.0 mg/kg/injection, schedule: Q04DX003 (ip), vehicle: saline with Tween-80 100 % of control | dose: 400.0 mg/kg/injection, schedule: Q01DX009 (ip), vehicle: saline with Tween-80 89 % of control | dose: 400.0 mg/kg/injection, schedule: Q04DX003 (ip), vehicle: saline with Tween-80 104 % of control

CN(C)C(=S)Sc1ccc([N+](=O)[O-])cc1[N+](=O)[O-]
inactive: dose: 100.0 mg/kg/injection, schedule: Q01DX001 (ip), vehicle: saline with Tween-80 96 % of control | dose: 100.0 mg/kg/injection, schedule: Q01DX009 (ip), vehicle: Klucel (hydroxypropylcellulose) (HPC) 91 % of control | dose: 200.0 mg/kg/injection, schedule: Q01DX001 (ip), vehicle: saline with Tween-80 100 % of control | dose: 200.0 mg/kg/injection, schedule: Q01DX009 (ip), vehicle: Klucel (hydroxypropylcellulose) (HPC) 93 % of control | dose: 400.0 mg/kg/injection, schedule: Q01DX001 (ip), vehicle: saline with Tween-80 100 % of control | dose: 400.0 mg/kg/injection, schedule: Q04DX003 (ip), vehicle: Klucel (hydroxypropylcellulose) (HPC) 86 % of control

O=C(O)c1ccc(C(=O)c2ccc([N+](=O)[O-])cc2)cc1
inactive: dose: 25.0 mg/kg/injection, schedule: Q01DX009 (ip), vehicle: carboxymethylcellulose (CMC) 102 % of control and 104 % of control | dose: 50.0 mg/kg/injection, schedule: Q01DX009 (ip), vehicle: carboxymethylcellulose (CMC) 95 % of control and 108 % of control | [3] 92 % of control and 97 % of control | dose: 100.0 mg/kg/injection, schedule: Q01DX009 (ip), vehicle: carboxymethylcellulose (CMC) 95 % of control and 102 % of control | dose: 100.0 mg/kg/injection, schedule: Q04DX002 (ip), vehicle: carboxymethylcellulose (CMC) 101 % of control and 102 % of control | dose: 100.0 mg/kg/injection, schedule: Q04DX003 (ip), vehicle: carboxymethylcellulose (CMC) 105 % of control and 114 % of control | [4] 98 % of control and 100 % of control | dose: 200.0 mg/kg/injection, schedule: Q04DX002 (ip), vehicle: carboxymethylcellulose (CMC) 93 % of control and 95 % of control | dose: 200.0 mg/kg/injection, schedule: Q04DX003 (ip), vehicle: carboxymethylcellulose (CMC) 97 % of control and 98 % of control | [5] 93 % of control and 100 % of control | dose: 400.0 mg/kg/injection, schedule: Q01DX009 (ip), vehicle: carboxymethylcellulose (CMC) 104 % of control | dose: 400.0 mg/kg/injection, schedule: Q04DX002 (ip), vehicle: carboxymethylcellulose (CMC) 95 % of control and 98 % of control | dose: 400.0 mg/kg/injection, schedule: Q04DX003 (ip), vehicle: carboxymethylcellulose (CMC) 96 % of control and 88 % of control

CCS(=O)(=O)N(CC(=O)O)Cc1ccccc1
inactive: [6] 100 % of control | [7] 104 % of control | dose: 100.0 mg/kg/injection, schedule: Q04DX003 (ip), vehicle: saline 100 % of control | [8] 93 % of control | dose: 200.0 mg/kg/injection, schedule: Q04DX003 (ip), vehicle: saline 96 % of control | dose: 300.0 mg/kg/injection, schedule: Q01DX009 (ip), vehicle: saline 95 % of control | dose: 400.0 mg/kg/injection, schedule: Q04DX003 (ip), vehicle: saline 94 % of control

CCOC(=O)C(=O)c1cn(C)c2ccccc12
inactive: [9] 109 % of control | [3] 106 % of control | [4] 106 % of control | [5] 101 % of control

Cc1ccc(S(=O)(=O)Cc2ccccc2)cc1
inactive: [9] 103 % of control | [6] 103 % of control | [3] 103 % of control | [7] 99 % of control | dose: 100.0 mg/kg/injection, schedule: Q04DX002 (ip), vehicle: Klucel (hydroxypropylcellulose) (HPC) 100 % of control | [4] 103 % of control | [8] 94 % of control | dose: 200.0 mg/kg/injection, schedule: Q04DX002 (ip), vehicle: Klucel (hydroxypropylcellulose) (HPC) 106 % of control | [5] 97 % of control | dose: 400.0 mg/kg/injection, schedule: Q04DX002 (ip), vehicle: Klucel (hydroxypropylcellulose) (HPC) 95 % of control

CCCCNC(=O)c1ccccc1-c1ccccc1C(=O)NCCCC
inactive: dose: 100.0 mg/kg/injection, schedule: Q01DX001 (ip), vehicle: other 105 % of control | dose: 200.0 mg/kg/injection, schedule: Q01DX001 (ip), vehicle: other 97 % of control

Cc1noc(NC(=O)Nc2ccc(Cl)cc2Cl)c1C
inactive: dose: 12.5 mg/kg/injection, schedule: Q01DX009 (ip), vehicle: saline with Tween-80 86 % of control | dose: 25.0 mg/kg/injection, schedule: Q01DX009 (ip), vehicle: saline with Tween-80 89 % of control | dose: 50.0 mg/kg/injection, schedule: Q01DX009 (ip), vehicle: saline with Tween-80 91 % of control | [1] 91 % of control | [2] 87 % of control

COc1cc2c(c(OC)c1OC)-c1ccc(OC)c(=O)cc1[C@@H](NC(=O)CCl)CC2
inactive: dose: 0.06 mg/kg/injection, schedule: Q01DX009 (ip), vehicle: Klucel (hydroxypropylcellulose) (HPC) 108 % of control | dose: 0.12 mg/kg/injection, schedule: Q01DX009 (ip), vehicle: Klucel (hydroxypropylcellulose) (HPC) 110 % of control | dose: 0.14 mg/kg/injection, schedule: Q01DX009 (ip), vehicle: saline 115 % of control | dose: 0.18 mg/kg/injection, schedule: Q04DX003 (ip), vehicle: Klucel (hydroxypropylcellulose) (HPC) 102 % of control | dose: 0.23 mg/kg/injection, schedule: Q01DX009 (ip), vehicle: saline 121 % of control | dose: 0.25 mg/kg/injection, schedule: Q01DX009 (ip), vehicle: Klucel (hydroxypropylcellulose) (HPC) 118 % of control and 124 % of control | dose: 0.37 mg/kg/injection, schedule: Q04DX003 (ip), vehicle: Klucel (hydroxypropylcellulose) (HPC) 119 % of control | dose: 0.75 mg/kg/injection, schedule: Q04DX003 (ip), vehicle: Klucel (hydroxypropylcellulose) (HPC) 120 % of control
